Reference: ChEMBL document CHEMBL3885861, “Open TG-GATES”

Species: Rattus norvegicus
Assay: Open TG-GATES - Regimen: Daily Repeat
Assay type: toxicity, organism-based, Sprague-Dawley
Set-up: regimen Daily Repeat, gender Male, age 6 weeks
Conditions: in vivo, po, route gavage; for APTT / Bas / Eos / Fbg / Hb / Ht / Lym / MCH / MCHC / MCV / Mono / Neu / PT / Plat / RBC / Ret / WBC: tissue Blood; for KIDNEY_L / KIDNEY_R / KIDNEY_TOTAL: tissue Kidney; for LIVER: tissue Liver; for A/G / ALP / ALT / AST / BUN / CRE / Ca / Cl / DBIL / GLC / IP / K / LDH / Na / PL / RALB / TBIL / TC / TG / TP / gamma-GTP: tissue Plasma
[1] = 0 mg/kg, 72 h, dose level Control, time 3 day
[2] = 0 mg/kg, […], dose level Control, time 7 day
[3] = 0 mg/kg, […], dose level Control, time 14 day
[4] = 0 mg/kg, […], dose level Control, time 28 day
[5] = 100 mg/kg, 72 h, dose level Low, time 3 day
[6] = 100 mg/kg, […], dose level Low, time 7 day
[7] = 100 mg/kg, […], dose level Low, time 14 day
[8] = 100 mg/kg, […], dose level Low, time 28 day

## O=C(O)c1cc(/N=N/c2ccc(S(=O)(=O)Nc3ccccn3)cc2)ccc1O [SULFASALAZINE]
[1]
  TERMINAL_BW: 237.4 g
  APTT: 18.3 s
  Bas: 0%
  Eos: 1%
  Fbg: 245.4 mg/dL
  Hb: 13.3 g/dL
  Ht: 38.5%
  Lym: 78.2%
  MCH: 22 pg
  MCHC: 34.7%
  MCV: 63.5 fL
  Mono: 3%
  Neu: 16.8%
  PT: 12.4 s
  Plat: 125.9 x10_4/uL
  RBC: 607.8 x10_4/ul
  Ret: 6.3%
  WBC: 93.4 x10_2/uL
  KIDNEY_L: 1 g
  KIDNEY_R: 1 g
  KIDNEY_TOTAL: 2 g
  LIVER: 11.2 g
  A/G: 1.4
  ALP: 938.8 IU/L
  ALT: 39.8 IU/L
  AST: 74.2 IU/L
  BUN: 16.6 mg/dL
  CRE: 0.4 mg/dL
  Ca: 11 mg/dL
  Cl: 102.6 meq/L
  DBIL: 0.1 mg/dL
  GLC: 207.4 mg/dL
  IP: 7.3 mg/dL
  K: 4 meq/L
  LDH: 226.6 IU/L
  Na: 140.6 meq/L
  PL: 157 mg/dL
  RALB: 3.4 g/dL
  TBIL: 0.2 mg/dL
  TC: 75.6 mg/dL
  TG: 104 mg/dL
  TP: 5.7 g/dL
  gamma-GTP: 1.2 IU/L
[2]
  TERMINAL_BW: 263.5 g
  APTT: 19.2 s
  Bas: 0%
  Eos: 1%
  Fbg: 223.4 mg/dL
  Hb: 14.1 g/dL
  Ht: 41.1%
  Lym: 81.6%
  MCH: 21.5 pg
  MCHC: 34.2%
  MCV: 62.8 fL
  Mono: 2.6%
  Neu: 14.2%
  PT: 12.3 s
  Plat: 129.3 x10_4/uL
  RBC: 655 x10_4/ul
  Ret: 5.5%
  WBC: 126 x10_2/uL
  KIDNEY_L: 1.1 g
  KIDNEY_R: 1.1 g
  KIDNEY_TOTAL: 2.2 g
  LIVER: 12 g
  A/G: 1.4
  ALP: 884.4 IU/L
  ALT: 33 IU/L
  AST: 64.6 IU/L
  BUN: 16.8 mg/dL
  CRE: 0.4 mg/dL
  Ca: 10.7 mg/dL
  Cl: 103.4 meq/L
  DBIL: 0.092 mg/dL
  GLC: 233.6 mg/dL
  IP: 7.5 mg/dL
  K: 3.5 meq/L
  LDH: 218.6 IU/L
  Na: 140.8 meq/L
  PL: 160.4 mg/dL
  RALB: 3.4 g/dL
  TBIL: 0.1 mg/dL
  TC: 78.8 mg/dL
  TG: 99.8 mg/dL
  TP: 5.9 g/dL
  gamma-GTP: 1.2 IU/L
[3]
  TERMINAL_BW: 308.2 g
  APTT: 19.7 s
  Bas: 0%
  Eos: 1%
  Fbg: 229.4 mg/dL
  Hb: 14.7 g/dL
  Ht: 41.7%
  Lym: 78.4%
  MCH: 20.9 pg
  MCHC: 35.3%
  MCV: 59.2 fL
  Mono: 2.4%
  Neu: 16.8%
  PT: 12.2 s
  Plat: 115.1 x10_4/uL
  RBC: 703.6 x10_4/ul
  Ret: 3.9%
  WBC: 92.7 x10_2/uL
  KIDNEY_L: 1.2 g
  KIDNEY_R: 1.2 g
  KIDNEY_TOTAL: 2.4 g
  LIVER: 13.3 g
  A/G: 1.3
  ALP: 900.6 IU/L
  ALT: 43.4 IU/L
  AST: 76.6 IU/L
  BUN: 18.6 mg/dL
  CRE: 0.5 mg/dL
  Ca: 10.6 mg/dL
  Cl: 103.4 meq/L
  DBIL: 0.1 mg/dL
  GLC: 189.8 mg/dL
  IP: 6.4 mg/dL
  K: 3.8 meq/L
  LDH: 292 IU/L
  Na: 140.4 meq/L
  PL: 155 mg/dL
  RALB: 3.3 g/dL
  TBIL: 0.2 mg/dL
  TC: 63.2 mg/dL
  TG: 175.8 mg/dL
  TP: 6 g/dL
  gamma-GTP: 1.2 IU/L
[4]
  TERMINAL_BW: 377.2 g
  APTT: 20.6 s
  Bas: 0%
  Eos: 0.8%
  Fbg: 217.8 mg/dL
  Hb: 15.6 g/dL
  Ht: 43.1%
  Lym: 83.8%
  MCH: 20.1 pg
  MCHC: 36.2%
  MCV: 55.6 fL
  Mono: 1.4%
  Neu: 12.4%
  PT: 12.5 s
  Plat: 98.7 x10_4/uL
  RBC: 775.4 x10_4/ul
  Ret: 2.3%
  WBC: 97.9 x10_2/uL
  KIDNEY_L: 1.3 g
  KIDNEY_R: 1.3 g
  KIDNEY_TOTAL: 2.5 g
  LIVER: 14.8 g
  A/G: 1.3
  ALP: 718.2 IU/L
  ALT: 49.2 IU/L
  AST: 80.6 IU/L
  BUN: 17.8 mg/dL
  CRE: 0.5 mg/dL
  Ca: 10.3 mg/dL
  Cl: 103.6 meq/L
  DBIL: 0.1 mg/dL
  GLC: 217.6 mg/dL
  IP: 6.1 mg/dL
  K: 3.7 meq/L
  LDH: 287.2 IU/L
  Na: 141.2 meq/L
  PL: 148.4 mg/dL
  RALB: 3.4 g/dL
  TBIL: 0.2 mg/dL
  TC: 68.8 mg/dL
  TG: 151.4 mg/dL
  TP: 6.2 g/dL
  gamma-GTP: 0.8 IU/L
[5]
  TERMINAL_BW: 236.6 g
  APTT: 18.4 s
  Bas: 0%
  Eos: 1%
  Fbg: 226.6 mg/dL
  Hb: 13.6 g/dL
  Ht: 39.7%
  Lym: 79.8%
  MCH: 21.5 pg
  MCHC: 34.3%
  MCV: 62.6 fL
  Mono: 3.2%
  Neu: 14.4%
  PT: 12.6 s
  Plat: 129.7 x10_4/uL
  RBC: 634.2 x10_4/ul
  Ret: 6.4%
  WBC: 114.1 x10_2/uL
  KIDNEY_L: 1 g
  KIDNEY_R: 1 g
  KIDNEY_TOTAL: 2 g
  LIVER: 10.9 g
  A/G: 1.5
  ALP: 979.2 IU/L
  ALT: 44.4 IU/L
  AST: 86.8 IU/L
  BUN: 16.4 mg/dL
  CRE: 0.4 mg/dL
  Ca: 10.9 mg/dL
  Cl: 103 meq/L
  DBIL: 0.09 mg/dL
  GLC: 201 mg/dL
  IP: 7.4 mg/dL
  K: 4.2 meq/L
  LDH: 286.8 IU/L
  Na: 140.4 meq/L
  PL: 154.6 mg/dL
  RALB: 3.3 g/dL
  TBIL: 0.1 mg/dL
  TC: 76.8 mg/dL
  TG: 83.4 mg/dL
  TP: 5.6 g/dL
  gamma-GTP: 1.4 IU/L
[6]
  TERMINAL_BW: 262.7 g
  APTT: 19.1 s
  Bas: 0%
  Eos: 1%
  Fbg: 216.2 mg/dL
  Hb: 13.8 g/dL
  Ht: 39.9%
  Lym: 82%
  MCH: 21.1 pg
  MCHC: 34.5%
  MCV: 61.3 fL
  Mono: 1.8%
  Neu: 13.6%
  PT: 12.5 s
  Plat: 116 x10_4/uL
  RBC: 651.8 x10_4/ul
  Ret: 5.1%
  WBC: 110 x10_2/uL
  KIDNEY_L: 1.1 g
  KIDNEY_R: 1.1 g
  KIDNEY_TOTAL: 2.2 g
  LIVER: 11.9 g
  A/G: 1.6
  ALP: 780.6 IU/L
  ALT: 31.8 IU/L
  AST: 63.8 IU/L
  BUN: 16.4 mg/dL
  CRE: 0.4 mg/dL
  Ca: 10.6 mg/dL
  Cl: 103.4 meq/L
  DBIL: 0.074 mg/dL
  GLC: 232 mg/dL
  IP: 7.2 mg/dL
  K: 3.7 meq/L
  LDH: 217.4 IU/L
  Na: 140.6 meq/L
  PL: 149.6 mg/dL
  RALB: 3.5 g/dL
  TBIL: 0.1 mg/dL
  TC: 72.8 mg/dL
  TG: 71 mg/dL
  TP: 5.7 g/dL
  gamma-GTP: 1.4 IU/L
[7]
  TERMINAL_BW: 309.6 g
  APTT: 19.4 s
  Bas: 0%
  Eos: 1%
  Fbg: 214 mg/dL
  Hb: 14.5 g/dL
  Ht: 41.3%
  Lym: 79.2%
  MCH: 21.2 pg
  MCHC: 35.1%
  MCV: 60.4 fL
  Mono: 2.6%
  Neu: 16.2%
  PT: 12.5 s
  Plat: 107.7 x10_4/uL
  RBC: 684.4 x10_4/ul
  Ret: 4.6%
  WBC: 116.3 x10_2/uL
  KIDNEY_L: 1.2 g
  KIDNEY_R: 1.2 g
  KIDNEY_TOTAL: 2.3 g
  LIVER: 13 g
  A/G: 1.5
  ALP: 842.8 IU/L
  ALT: 34 IU/L
  AST: 65.6 IU/L
  BUN: 16.8 mg/dL
  CRE: 0.5 mg/dL
  Ca: 10.5 mg/dL
  Cl: 103.4 meq/L
  DBIL: 0.1 mg/dL
  GLC: 203.8 mg/dL
  IP: 6.5 mg/dL
  K: 3.6 meq/L
  LDH: 196 IU/L
  Na: 141.4 meq/L
  PL: 153.6 mg/dL
  RALB: 3.5 g/dL
  TBIL: 0.2 mg/dL
  TC: 70.6 mg/dL
  TG: 133.4 mg/dL
  TP: 5.8 g/dL
  gamma-GTP: 1.2 IU/L
[8]
  TERMINAL_BW: 389.8 g
  APTT: 19.7 s
  Bas: 0%
  Eos: 1%
  Fbg: 231 mg/dL
  Hb: 15.1 g/dL
  Ht: 42.4%
  Lym: 81.2%
  MCH: 19.8 pg
  MCHC: 35.6%
  MCV: 55.6 fL
  Mono: 2.4%
  Neu: 14.6%
  PT: 12.6 s
  Plat: 105.8 x10_4/uL
  RBC: 764.8 x10_4/ul
  Ret: 3.2%
  WBC: 113.7 x10_2/uL
  KIDNEY_L: 1.4 g
  KIDNEY_R: 1.4 g
  KIDNEY_TOTAL: 2.7 g
  LIVER: 15 g
  A/G: 1.3
  ALP: 678.2 IU/L
  ALT: 38.8 IU/L
  AST: 65.8 IU/L
  BUN: 18 mg/dL
  CRE: 0.5 mg/dL
  Ca: 10.5 mg/dL
  Cl: 102.8 meq/L
  DBIL: 0.1 mg/dL
  GLC: 215 mg/dL
  IP: 6 mg/dL
  K: 3.6 meq/L
  LDH: 185.6 IU/L
  Na: 141.4 meq/L
  PL: 154 mg/dL
  RALB: 3.6 g/dL
  TBIL: 0.2 mg/dL
  TC: 71.6 mg/dL
  TG: 129.8 mg/dL
  TP: 6.3 g/dL
  gamma-GTP: 0.6 IU/L
